Measured values from patent publication US20190255146A1, “POLYPEPTIDES FOR IMPROVED RESPONSE TO ANTI-CANCER THERAPY” (MUSC FOUNDATION FOR RESEARCH DEVELOPMENT, priority 2016, published 2019).

Key:
UM-SCC-22A cells [1] = test: Mitophagy in UM-SCC-22A cells (live cell imaging, colocalization of LTG and MTR); assay type: cell-based
Protocol: Laser scanning confocal microscopy. For live cell imaging, cultured cells were incubated with 500 nM of mitotracker […] and 500 nM lysotracker green in DMSO for 30 min at 37° C. […] An Olympus FV10i confocal microscope was used for imaging. 543- and 488-nm channels were used for visualizing red or green fluorescence, respectively, with pinholes set to 1.0 Airy units. At least three random fields were imaged for each sample ([…] et al, 2012).

[2] = test system: UM-SCC-22A xenograft-derived tumors; conditions: peptide plus cisplatin versus Scr-pept with/without cisplatin
Source text: Data are means±SD from three independent experiments. *p<0.05 as determined by Student's t test. […] Data are means±SD from three independent experiments. *p<0.05 as determined by Student's t test. […] Data are means±SD from three independent experiments. *p<0.05 as determined by Student's t test.
(§1) In vivo studies. Severe combined immunodeficient (SCID) mice were purchased from Jackson Laboratories. Age- and sex-matched mice were used. All animal protocols were approved by the Institutional Animal Care and Use Committee at the Medical University of South Carolina. UM-SCC22A or UM-SCC47 cells (75,000) were implanted into the flanks of SCID mice (n=5-8 mice). When the tumors were palpable, the mice were treated every three days with 3.5 mg/kg cisplatin, 20 mg/kg C18-pyr-cer, or corresponding amount of vehicle control and/or 3.76 μg E2F5-peptide or scrambled control peptide. Tumor volume was measured using calipers. At the end of the 14-day treatment, the mice were euthanized and tumor tissues were collected (Sentelle et al, 2007; Saddoughi et al, 2013).

Drp1-E2F5 complex [3] = target: T1, Drp1-E2F5 complex (Homo sapiens, UniProt O00429); test: Drp1-E2F5 association by PLA in tumor tissue sections; assay type: in vivo, mice; conditions: peptide plus cisplatin versus Scr-pept with/without cisplatin
T1 construct: from tissue; host or cells: UM-SCC-22A xenograft tumours grown in SCID mice
T1 sequence (O00429 whole entry, one chain of several): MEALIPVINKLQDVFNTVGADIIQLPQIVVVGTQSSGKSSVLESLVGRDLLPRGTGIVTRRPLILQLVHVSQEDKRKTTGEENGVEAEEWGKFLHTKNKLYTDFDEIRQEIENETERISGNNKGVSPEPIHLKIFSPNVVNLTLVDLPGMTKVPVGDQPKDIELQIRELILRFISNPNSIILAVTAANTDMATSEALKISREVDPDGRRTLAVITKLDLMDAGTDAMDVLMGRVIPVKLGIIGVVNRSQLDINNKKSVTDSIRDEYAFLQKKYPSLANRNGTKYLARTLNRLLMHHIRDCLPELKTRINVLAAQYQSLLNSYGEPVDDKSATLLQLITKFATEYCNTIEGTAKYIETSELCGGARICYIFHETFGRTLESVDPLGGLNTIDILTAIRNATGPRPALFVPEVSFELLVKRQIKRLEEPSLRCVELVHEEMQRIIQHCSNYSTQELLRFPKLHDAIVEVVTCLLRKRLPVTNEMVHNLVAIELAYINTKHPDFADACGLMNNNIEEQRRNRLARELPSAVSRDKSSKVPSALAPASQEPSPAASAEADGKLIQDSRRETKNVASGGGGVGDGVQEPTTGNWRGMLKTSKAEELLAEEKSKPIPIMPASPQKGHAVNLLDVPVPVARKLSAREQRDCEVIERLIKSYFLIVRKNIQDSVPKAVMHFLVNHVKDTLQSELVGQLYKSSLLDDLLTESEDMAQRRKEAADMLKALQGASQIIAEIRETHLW
Protocol: (§2) Images were quantified using FIJI.
(§3) Proximity ligation assay. Proximity ligation assays were performed using Duolink in situ red kit (Sigma) per manufacturer's instructions, then analyzed as described (Panneer-Selvam et al, 2015).
In vivo studies. […] Age- and sex-matched mice were used. […] Tumor volume was measured using calipers.

[4] = test system: UM-SCC-22A-derived xenograft tumors; test: HPV(−) UM-SCC-22A-derived xenograft tumor growth in SCID mice; assay type: in vivo; conditions: UM-SCC-22A xenografts, 3.76 μg peptide, absence/presence of cisplatin 3.5 mg/kg every 3 days for 2 weeks
Protocol: To determine whether HPV(+) compared to HPV(−) HNSCC cells are more sensitive to stress-mediated growth inhibition in response to chemotherapeutic drugs, it was first established HPV(+) UM-SCC-47- and HPV(−) UM-SCC-22A-derived xenograft tumors in SCID mice. After the xenograft-derived tumors were ˜75-100 mm^3, the mice were treated with cisplatin (3.5 mg/kg) for two weeks, which is below its maximum tolerated doses (van Moorsel et al, 1999). Then, tumor volumes were measured at days 0 and 14 of treatment. […] After tumor growth measurements in the mice were taken, the tumors were surgically removed and the effects of cisplatin on CerS1-6 mRNA were measured by qRT-PCR.
Eight arginine residues (R8) were included on the N-terminus to enhance cell penetration of the E2F5 peptide (Rancher and Ryu, 2015).
as §1

UM-SCC-22A cells [5] = test system: UM-SCC-22A cells
Protocol: Trypan blue exclusion assay. Cells were seeded in 6-well plates, and allowed to adhere for 20 h. After treatments (for 24 h), medium containing dead cells was pelleted with trypsinized cells, then re-suspended in 1× PBS then counted in a hemocytometer after addition of trypan blue dye (Sigma-Aldrich) at a 1:10 dilution.

Drp1 [6] = target: T2, Drp1 (Homo sapiens, UniProt O00429); test: Drp1 recruitment to mitochondria in HPV(−) UM-SCC-22A cells (Western blotting of mitochondria-enriched fractions); assay type: cell-based; conditions: 5 uM peptide, 20 uM C18-pyr-cer, 1.5 hours
T2 construct: Western blotting using whole cell (UM-SCC-22A) lysates versus mitochondria-enriched fractions; endogenous in cells; host or cells: UM-SCC-22A
T2 sequence (O00429 whole entry): as the sequence (O00429 whole entry, one chain of several) above
Protocol: as §2
(§4) Immunoblotting. Cells were lysed in RIPA buffer plus protease inhibitor cocktail on ice for 15 minutes then centrifuged. 30ug of protein from the supernatant were run on Criterion™ TGX™ Precast Gels (Bio-Rad).
Cell fractionation. Cells were treated with 40 uM cisplatin or vehicle for eight hours, 20 uM C18-pyr-cer or vehicle and/or 5 uM scr-pept or E2F5-pept for 1.5 hours. Mitochondria isolation kit (ThermoFisher Scientific) was used as described by the manufacturer.

Drp1-E2F5 complex [7] = test: Drp1-E2F5 association in UM-SCC-47 cells (PLA, co-immunoprecipitation); assay type: cell-based
Protocol: as §3
Co-immunoprecipitation. Cells were lysed in 500 ul Pierce™ IP lysis/wash buffer (ThermoFisher) with protease inhibitor cocktail (Sigma) on ice for 15 minutes. 350 μg of protein were used with SureBeads™ Protein A Magnetic Beads (BioRad) per manufacturer's instructions, using 10 μg antibody or corresponding normal IgG control (SCBT).

UM-SCC-47 cells [8] = test: Mitophagy in UM-SCC-47 cells (Sea Horse oxygen consumption rate, TEM); assay type: cell-based
Protocol: Measurement of cellular respiration using Seahorse XF analyzer. Cells were plated in a Seahorse Biosciences 96-well plate and allowed to adhere for 20 hours. They were then treated with 20 uM C18-pyr-cer or equivalent amount of vehicle (EtOH) for two hours, then oxygen consumption rate was measured using a Seahorse XF96 (Seahorse Biosciences) as described by the manufacturer (Sentelle et al, 2012).
Ultra-structure analysis using transmission electron microscopy.

Drp1 [9] = test: Drp1 recruitment to mitochondria in HPV(+) UM-SCC-47 cells (Western blotting of mitochondria-enriched fractions); assay type: cell-based
Protocol: (§5) FIGS. 9A-D. E2F5 enhances Drp1 translocation to mitochondria and association with MFF to induce HPV-E7/ceramide-dependent mitophagy. (A) Effects of stable knockdown of E2F5 using shRNA on DRP1-MFF association with/without C18-pyr-cer were measured by PLA using anti-DRP1 and anti-MFF antibodies compared to Scr-shRNA-transfected UM-SCC-47 controls. […] (B) HPV(−) UM-SCC1A cells transiently transfected with exogenous E2F5 or empty vector (vec) were used to measure the association between Drp1 and MFF in the absence/presence of ceramide stress by PLA using anti-DRP1 and anti-MFF antibodies. […] (C) Effects of shRNA-mediated E2F5 knockdown on Drp1 localization to mitochondria in the absence/presence of C18-pyr-cer were assessed in whole cell lysates (UM-SCC-47) versus mitochondria-enriched fractions using Western blotting. (D) Effects of transient reconstitution of E2F5^WT or E2F5^Δ84-177 proteins in UM-SCC47 cells, which were stably transfected with E2F5-shRNA, on Drp1 abundance, were measured by Western blotting using anti-Drp1 antibody, in whole cell lysates versus mitochondria-enriched fractions.
as §4
Cell fractionation. […]

Drp1-MFF association = Drp1-MFF association by PLA in UM-SCC47 cells; assay type: cell-based
Protocol: as §5, §3

UM-SCC-22A cells [10] = test: Growth inhibition in culture, IC50 determination by MTT assay; assay type: cell-based; conditions: UM-SCC-22A (HPV−) cells, 48 h; read-out: IC50 (concentration that inhibited growth by 50%)
Protocol: (§6) IC50 determination by MTT assay. Cells were plated in 96-well plates and allowed to adhere for 20 h, then treated with the indicated concentrations of drug. After 48 h treatment, the MTT assay (ATCC) was performed as described previously (Sentelle et al, 2012).

UM-SCC-47 cells [11] = test: as above; assay type: cell-based
Protocol: as §6

Drp1 [12] = test: Drp1 oligomerization by Western blotting without reducing agents; assay type: cell-based; conditions: HPV(+) UM-SCC47 cells
Protocol: FIGS. 7A-F. E2F5/Drp1 complex enhances HPV-E7/ceramide-dependent lethal mitophagy. (A) UM-SCC47 cells were treated with cisplatin or C18-pyr-cer and Western blotting was performed with cell lysates in the absence of reducing agents in the lysing buffer to detect monomeric and dimeric Drp1 protein abundance compared to vehicle-treated controls. Actin was used as a loading control. (B-C) Cell death was assessed by trypan blue exclusion assay in UM-SCC47 cells expressing dominant-negative Drp1 mutant (K38A-DRP1) and treated with C18-pyr-cer (B) or cisplatin (C) compared to vector-transfected controls. […] (D-E) Association between E2F5 and Drp1 in response to ceramide stress (C18-pyr-cer) was measured in UM-SCC-47 cells using PLA (D) or immunoprecipitation followed by Western blotting (E) with anti-Drp1 or anti-E2F5 antibodies. IgG was used as a control. […] PLA signals were quantified as described by the manufacturer using the PLA quantification software. […] Effects of siRNA-mediated HPV-E6/E7 knockdown on pRB, HPV-E7 and p53 protein abundance were also confirmed by Western blotting compared to Scr-siRNA-transfected controls in the absence/presence of C18-pyr-cer (right panel). Total RB was used a loading control (Rb band, upper panel).
Immunoblotting. Cells were lysed in RIPA buffer plus protease inhibitor cocktail on ice for 15 minutes then centrifuged. […]

| Substance | C18-pyr-cer-induced mitophagy (colocalization of LTG and MTR) (UM-SCC-22A cells [1]; peptide plus C18-pyr-cer) | mitophagy in tumors (TEM) [2] | co-localization of Drp1 and E2F5 in tumors (PLA) (Drp1-E2F5 complex [3]) | tumor growth [4] | C18-pyr-cer-induced cell death (UM-SCC-22A cells [5]; peptide plus C18-pyr-cer, compared to scr-pept) | cisplatin-induced cell death (UM-SCC-22A cells [5]; peptide plus cisplatin, compared to scr-pept) | peptide-enhanced cell death under shRNA-mediated Drp1 knockdown (UM-SCC-22A cells [5]; with/without C18-pyr-cer) | ceramide-induced Drp1 recruitment to mitochondria (Drp1 [6]) | lethal mitophagy in HPV(−) cells (UM-SCC-22A cells [1]; 5-10 μM, 24-48 h) | Drp1-E2F5 association by PLA (Drp1-E2F5 complex [7]; versus controls) | Drp1-E2F5 association by co-immunoprecipitation (Drp1-E2F5 complex [7]; versus vehicle control) | number of mitochondria and autophagosomes by TEM (UM-SCC-47 cells [8]; HPV(+) UM-SCC-47 compared to HPV(−) UM-SCC-22A cells) | mitophagy detected by decreased oxygen consumption rate (UM-SCC-47 cells [8]; UM-SCC-47 cells, Sea Horse, versus vehicle) | recruitment of Drp1 to mitochondria (Drp1 [9]) | Drp1-MFF association by PLA (Drp1-MFF association) | IC50 (UM-SCC-22A cells [10]) [µM] | IC50 (UM-SCC-47 cells [11]; UM-SCC-47 (HPV+) cells, 48 h, read-out: IC50 (concentration that inhibited growth by 50%)) [µM] | sensitivity for drug-induced growth inhibition/cell death, UM-SCC-47 compared to UM-SCC-22A cells (UM-SCC-47 cells [11]; cells in culture) [fold] | Drp1 oligomerization and/or activation (Drp1 [12]) |
| --- | --- | --- | --- | --- | --- | --- | --- | --- | --- | --- | --- | --- | --- | --- | --- | --- | --- | --- | --- |
| Biotin-RRRRRRRR-ELDQQKLWLQQSIKNVMDDSINNRFSYVTHED [E2F5-pept] | enhanced C18-pyr-cer-induced mitophagy | increased mitophagy | increased | almost completely inhibited tumor growth | largely increased | largely increased | attenuated | enhanced ceramide-induced Drp1 recruitment to mitochondria |  |  |  |  |  |  |  |  |  |  |  |
| C18-pyridinium-ceramide [C18-pyr-cer] |  |  |  |  |  |  |  |  | induces lethal mitophagy | increased Drp1-E2F5 association | increased association between Drp1 and E2F5 | a decreased number mitochondria and an increased number of autophagosomes | increased mitophagy | induced recruitment of Drp1 to mitochondria | induced Drp1-MFF association | 5 | 1.6 | ~3 | Drp1 oligomerization and/or activation was observed |
